Laboratory results published in patent publication US12441733B2, “Substituted 2,4-dioxotetrahydropyrimidines as intermediates in the synthesis of bruton's tyrosine kinase inhibitors” (Novartis AG, priority 2018, dated 2025).
Where two headings read alike, the source gives them in different places.

What was measured:
Assay type in all cases: cell-based
TMD8 cells = assay: Resazurin cell viability (proliferation) assay in TMD8 DLBCL cells; conditions: TMD8 cells (BTK dependent), 72 h, 50% growth inhibition vs vehicle, read-out: TMD8 Prol GI50
In short: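 TMD8 cells were seeded at 1×10^4 per well and treated 3 h later with compound, in an 8-point 1:4 dilution series starting at 1 μM, or DMSO, for 72 h at 37° C. Resazurin was added at 13 μg/ml final for the last 2 h, and fluorescence was read at ex 530/em 600 nm. GI50 versus vehicle was derived by curve fitting from triplicates.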

OCI-LY3 cells = assay: Resazurin cell viability (proliferation) assay in OCI-LY3 DLBCL cells; conditions: OCI-LY3 cells (BTK independent), 72 h, 50% growth inhibition vs vehicle, read-out: OCI-LY3 Prol GI50
In short: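 Cells were seeded at 1×10^4 per well and dosed 3 h later: 8-point 1:4 dilutions from 10 μM (OCI-LY3), in triplicate, 72 h at 37 °C. Resazurin (13 μg/ml final) was added for the last 2 h and fluorescence read at 530/600 nm. GI50 is relative to DMSO vehicle, typically from ≥2 independent experiments.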

BTK-GFP = target: T1, BTK-GFP (Homo sapiens, UniProt Q06187+Q96SW2); assay: BTK-GFP protein abundance flow cytometry assay in HEK293A cells; conditions: HEK293A BTK-GFP-iresRFP cells, 24 h; for DC50: GFP signal by flow cytometry, concentration at which 50% maximal degradation was observed; for BTK deg Amax: % protein remaining at the concentration at which maximum degradation is seen
T1 construct: expressed in transfected cells; host or cells: HEK293A (Invitrogen R70507), lentiviral transduction with pLenti6-BTK-GFP-Ires-RFP, blasticidin selection
T1 sequence (Q06187 whole entry): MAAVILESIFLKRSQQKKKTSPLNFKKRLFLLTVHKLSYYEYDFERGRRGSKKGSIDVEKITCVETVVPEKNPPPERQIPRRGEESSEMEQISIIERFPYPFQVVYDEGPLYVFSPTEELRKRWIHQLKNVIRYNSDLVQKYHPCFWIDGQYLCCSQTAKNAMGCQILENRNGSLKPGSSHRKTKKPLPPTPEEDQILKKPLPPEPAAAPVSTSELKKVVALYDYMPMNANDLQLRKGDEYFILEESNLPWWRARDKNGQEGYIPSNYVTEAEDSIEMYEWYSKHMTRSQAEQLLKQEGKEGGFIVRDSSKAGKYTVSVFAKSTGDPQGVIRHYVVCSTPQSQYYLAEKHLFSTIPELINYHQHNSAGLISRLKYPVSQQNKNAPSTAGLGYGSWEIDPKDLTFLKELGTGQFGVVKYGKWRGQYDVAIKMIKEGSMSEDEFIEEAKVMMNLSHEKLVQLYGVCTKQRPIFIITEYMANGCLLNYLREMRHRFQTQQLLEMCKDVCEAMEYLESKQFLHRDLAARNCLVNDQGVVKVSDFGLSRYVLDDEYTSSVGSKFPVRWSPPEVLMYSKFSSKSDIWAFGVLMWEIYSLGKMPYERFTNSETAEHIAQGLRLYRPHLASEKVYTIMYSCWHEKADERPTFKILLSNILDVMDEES
T1 sequence (Q96SW2 whole entry): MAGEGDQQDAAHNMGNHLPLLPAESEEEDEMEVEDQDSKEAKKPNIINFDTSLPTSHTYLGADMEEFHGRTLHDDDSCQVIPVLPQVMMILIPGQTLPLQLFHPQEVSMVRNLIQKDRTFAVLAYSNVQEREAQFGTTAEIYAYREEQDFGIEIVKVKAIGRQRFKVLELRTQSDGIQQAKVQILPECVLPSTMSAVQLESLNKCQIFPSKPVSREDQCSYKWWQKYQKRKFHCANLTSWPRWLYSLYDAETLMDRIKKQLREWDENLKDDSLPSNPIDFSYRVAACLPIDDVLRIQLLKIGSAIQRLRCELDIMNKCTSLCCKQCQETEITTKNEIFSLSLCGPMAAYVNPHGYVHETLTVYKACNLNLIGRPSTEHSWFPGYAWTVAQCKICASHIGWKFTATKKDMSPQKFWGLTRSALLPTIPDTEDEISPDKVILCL
T1 sequence (Q16531 whole entry partner): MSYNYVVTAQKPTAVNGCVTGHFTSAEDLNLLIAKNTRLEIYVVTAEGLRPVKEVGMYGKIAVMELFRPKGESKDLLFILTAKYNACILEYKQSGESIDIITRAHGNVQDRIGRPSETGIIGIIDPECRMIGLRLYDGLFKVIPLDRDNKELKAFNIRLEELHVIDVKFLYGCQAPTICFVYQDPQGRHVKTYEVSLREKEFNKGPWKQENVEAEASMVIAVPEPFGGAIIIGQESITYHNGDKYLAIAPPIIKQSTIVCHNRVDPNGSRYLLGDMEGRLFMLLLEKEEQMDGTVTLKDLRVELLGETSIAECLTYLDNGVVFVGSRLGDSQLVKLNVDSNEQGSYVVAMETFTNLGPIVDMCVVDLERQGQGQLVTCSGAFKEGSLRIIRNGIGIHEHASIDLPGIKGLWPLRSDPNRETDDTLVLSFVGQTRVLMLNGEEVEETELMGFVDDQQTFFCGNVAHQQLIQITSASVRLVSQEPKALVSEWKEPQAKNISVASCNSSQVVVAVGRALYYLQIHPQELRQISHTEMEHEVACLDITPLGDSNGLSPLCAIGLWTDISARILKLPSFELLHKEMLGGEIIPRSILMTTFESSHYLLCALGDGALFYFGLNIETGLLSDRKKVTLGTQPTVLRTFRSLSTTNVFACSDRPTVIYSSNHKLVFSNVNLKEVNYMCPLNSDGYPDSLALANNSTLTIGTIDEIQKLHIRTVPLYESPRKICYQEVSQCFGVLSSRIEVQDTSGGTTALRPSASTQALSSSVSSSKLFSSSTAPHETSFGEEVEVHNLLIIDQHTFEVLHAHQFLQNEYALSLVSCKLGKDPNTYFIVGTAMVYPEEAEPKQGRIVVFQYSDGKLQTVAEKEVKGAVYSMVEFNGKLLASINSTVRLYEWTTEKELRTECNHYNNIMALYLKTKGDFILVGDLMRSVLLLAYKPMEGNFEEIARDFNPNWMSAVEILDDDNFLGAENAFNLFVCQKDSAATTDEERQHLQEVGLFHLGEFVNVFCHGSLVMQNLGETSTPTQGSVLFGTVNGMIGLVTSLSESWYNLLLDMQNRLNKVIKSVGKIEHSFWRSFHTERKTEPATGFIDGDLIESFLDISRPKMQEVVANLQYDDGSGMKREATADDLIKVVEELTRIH
In short: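 HEK293A cells stably expressing bicistronic BTK-GFP-IRES-RFP (C-terminal GFP tag) via lentiviral vector. Degradation read by flow cytometry as loss of GFP signal after degrader treatment. DC50 is concentration giving 50% maximal degradation; Amax is % protein remaining at maximal degradation.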

Question: What does the source list for `Cc1c(NC(=O)c2ccc(C(C)(C)O)cc2F)cc(F)cc1-c1ncnc2[nH]c(-c3ccc(CN4CCC5(CC4)CN(CCNC(=O)c4ccc(Cl)c(N6CCC(=O)NC6=O)c4)CCO5)cc3)cc12` [Compound 37, N-(3-(6-(4-((4-(2-(4-chloro-3-(2,4-dioxotetrahydropyrimidin-1(2H)-yl)benzamido)ethyl)-1-oxa-4,9-diazaspiro[5.5]undecan-9-yl)methyl)phenyl)-7H-pyrrolo[2,3-d]pyrimidin-4-yl)-5-fluoro-2-methylphenyl)-2-fluoro-4-(2-hydroxypropan-2-yl)benzamide]?
Answer: GI50 (TMD8 cells; Homo sapiens): 1.93 nM; GI50 (OCI-LY3 cells; Homo sapiens): 4220 nM; DC50 (BTK-GFP): 11.3 nM; BTK deg Amax (BTK-GFP): 6.5%

Question: Which GI50 (TMD8 cells; Homo sapiens) does the source give for `COc1ccc(C(=O)N2CCC(CCN3CCC(Oc4ccc(-c5cc6c(-c7cc(F)cc(NC(=O)c8ccc(C(C)(C)O)cc8F)c7C)ncnc6[nH]5)cc4)CC3)CC2)cc1N1CCC(=O)NC1=O` [Compound 38, N-(3-(6-(4-((1-(2-(1-(3-(2,4-dioxotetrahydropyrimidin-1(2H)-yl)-4-methoxybenzoyl)piperidin-4-yl)ethyl)piperidin-4-yl)oxy)phenyl)-7H-pyrrolo[2,3-d]pyrimidin-4-yl)-5-fluoro-2-methylphenyl)-2-fluoro-4-(2-hydroxypropan-2-yl)benzamide] here?
Answer: Its GI50 is 0.51 nM.

Question: And the GI50 (OCI-LY3 cells; Homo sapiens)?
Answer: The GI50 was 4440 nM.

Question: What about the DC50 (BTK-GFP) of the same compound?
Answer: The DC50 was 0.9 nM.

Question: What about the “BTK deg Amax” value (BTK-GFP) of the same compound?
Answer: The value was 4.1%.

Question: What does the source list for `COc1ccc(C(=O)N2CCC(O[C@H]3CC[C@@H](OCc4ccc(-c5cc6c(-c7cc(F)cc(NC(=O)c8ccc(C(C)(C)O)cc8F)c7C)ncnc6[nH]5)cc4)CC3)CC2)cc1N1CCC(=O)NC1=O` [Compound 41, N-(3-(6-(4-((((1s,4s)-4-((1-(3-(2,4-dioxotetrahydropyrimidin-1(2H)-yl)-4-methoxybenzoyl)piperidin-4-yl)oxy)cyclohexyl)oxy)methyl)phenyl)-7H-pyrrolo[2,3-d]pyrimidin-4-yl)-5-fluoro-2-methylphenyl)-2-fluoro-4-(2-hydroxypropan-2-yl)benzamide]?
Answer: GI50 (TMD8 cells): 17.5 nM; GI50 (OCI-LY3 cells): > 10000 nM; DC50 (BTK-GFP): 12.4 nM; BTK deg Amax (BTK-GFP): 4.4%

Question: Which GI50 (TMD8 cells; Homo sapiens) does the source give for `Cc1c(NC(=O)c2ccc(C(C)(C)O)cc2F)cc(F)cc1-c1ncnc2[nH]c(-c3ccc(CNCCCCCN(C)C(=O)c4ccc(Cl)c(N5CCC(=O)NC5=O)c4)cc3)cc12` [Compound 42, 4-chloro-3-(2,4-dioxotetrahydropyrimidin-1(2H)-yl)-N-(5-((4-(4-(5-fluoro-3-(2-fluoro-4-(2-hydroxypropan-2-yl)benzamido)-2-methylphenyl)-7H-pyrrolo[2,3-d]pyrimidin-6-yl)benzyl)amino)pentyl)-N-methylbenzamide] here?
Answer: The GI50 was 5.34 nM.

Question: And the GI50 (OCI-LY3 cells; Homo sapiens)?
Answer: The GI50 was 8920 nM.

Question: What about the DC50 (BTK-GFP) of the same compound?
Answer: The DC50 was 59.5 nM.

Question: What about the “BTK deg Amax” value (BTK-GFP) of the same compound?
Answer: Its value is 8.8%.

Question: `COc1ccc(C(=O)N2CCC(CCN3CCC(COc4ccc(-c5cc6c(-c7cc(F)cc(NC(=O)c8ccc(C(C)(C)O)cc8F)c7C)ncnc6[nH]5)cc4)CC3)CC2)cc1N1CCC(=O)NC1=O` [Compound 43, N-(3-(6-(4-((1-(2-(1-(3-(2,4-dioxotetrahydropyrimidin-1(2H)-yl)-4-methoxybenzoyl)piperidin-4-yl)ethyl)piperidin-4-yl)methoxy)phenyl)-7H-pyrrolo[2,3-d]pyrimidin-4-yl)-5-fluoro-2-methylphenyl)-2-fluoro-4-(2-hydroxypropan-2-yl)benzamide] was tested. Which GI50 (TMD8 cells; Homo sapiens) did it give?
Answer: Its GI50 is 0.68 nM.

Question: And the GI50 (OCI-LY3 cells; Homo sapiens)?
Answer: The GI50 was 3340 nM.

Question: And the DC50 (BTK-GFP)?
Answer: The DC50 was 1 nM.

Question: What about the “BTK deg Amax” value (BTK-GFP) of the same compound?
Answer: The value was 2.3%.

Question: Which GI50 (TMD8 cells; Homo sapiens) does the source give for `COc1ccc(C(=O)N2CCN(CCNCCCOCc3ccc(-c4cc5c(-c6cc(F)cc(NC(=O)c7ccc(C(C)(C)O)cc7F)c6C)ncnc5[nH]4)cc3)CC2)cc1N1CCC(=O)NC1=O` [Compound 45, N-(3-(6-(4-((3-((2-(4-(3-(2,4-dioxotetrahydropyrimidin-1(2H)-yl)-4-methoxybenzoyl)piperazin-1-yl)ethyl)amino)propoxy)methyl)phenyl)-7H-pyrrolo[2,3-d]pyrimidin-4-yl)-5-fluoro-2-methylphenyl)-2-fluoro-4-(2-hydroxypropan-2-yl)benzamide] here?
Answer: Its GI50 is 19.1 nM.

Question: What about the GI50 (OCI-LY3 cells; Homo sapiens) of the same compound?
Answer: Its GI50 is greater than 10000 nM.

Question: What about the DC50 (BTK-GFP) of the same compound?
Answer: The DC50 was 284 nM.

Question: What about the “BTK deg Amax” value (BTK-GFP) of the same compound?
Answer: The value was 3.2%.

Question: Which results are given for `COc1ccc(C(=O)N2CCC(O[C@H]3CC[C@H](Oc4ccc(-c5cc6c(-c7cc(F)cc(NC(=O)c8ccc(C(C)(C)O)cc8F)c7C)ncnc6[nH]5)cc4)CC3)CC2)cc1N1CCC(=O)NC1=O` [Compound 46, N-(3-(6-(4-(((1r,4r)-4-((1-(3-(2,4-dioxotetrahydropyrimidin-1(2H)-yl)-4-methoxybenzoyl)piperidin-4-yl)oxy)cyclohexyl)oxy)phenyl)-7H-pyrrolo[2,3-d]pyrimidin-4-yl)-5-fluoro-2-methylphenyl)-2-fluoro-4-(2-hydroxypropan-2-yl)benzamide]?
Answer: GI50 (TMD8 cells): 3.59 nM; GI50 (OCI-LY3 cells): > 10000 nM; DC50 (BTK-GFP): 1.7 nM; BTK deg Amax (BTK-GFP): 3.6%

Question: For `Cc1c(NC(=O)c2ccc(C(C)(C)O)cc2F)cc(F)cc1-c1ncnc2[nH]c(-c3ccc(CN4CCC5(CC4)CN(CCCNC(=O)c4ccc(Cl)c(N6CCC(=O)NC6=O)c4)CCO5)cc3)cc12` [Compound 48, N-(3-(6-(4-((4-(3-(4-chloro-3-(2,4-dioxotetrahydropyrimidin-1(2H)-yl)benzamido)propyl)-1-oxa-4,9-diazaspiro[5.5]undecan-9-yl)methyl)phenyl)-7H-pyrrolo[2,3-d]pyrimidin-4-yl)-5-fluoro-2-methylphenyl)-2-fluoro-4-(2-hydroxypropan-2-yl)benzamide], which GI50 (TMD8 cells; Homo sapiens) is on record?
Answer: The GI50 was 2.23 nM.

Question: And the GI50 (OCI-LY3 cells; Homo sapiens)?
Answer: Its GI50 is 3600 nM.

Question: What about the DC50 (BTK-GFP) of the same compound?
Answer: The DC50 was 20.8 nM.

Question: And the “BTK deg Amax” value (BTK-GFP)?
Answer: The value was 9.4%.

Question: Which GI50 (TMD8 cells; Homo sapiens) does the source give for `COc1ccc(C(=O)N2CCC3(CCN(Cc4ccc(-c5cc6c(-c7cc(F)cc(NC(=O)c8ccc(C(C)(C)O)cc8F)c7C)ncnc6[nH]5)cc4)C3)CC2)cc1N1CCC(=O)NC1=O` [Compound 49, N-(3-(6-(4-((8-(3-(2,4-dioxotetrahydropyrimidin-1(2H)-yl)-4-methoxybenzoyl)-2,8-diazaspiro[4.5]decan-2-yl)methyl)phenyl)-7H-pyrrolo[2,3-d]pyrimidin-4-yl)-5-fluoro-2-methylphenyl)-2-fluoro-4-(2-hydroxypropan-2-yl)benzamide] here?
Answer: The GI50 was 5.35 nM.

Question: What about the GI50 (OCI-LY3 cells; Homo sapiens) of the same compound?
Answer: The GI50 was 4840 nM.

Question: And the DC50 (BTK-GFP)?
Answer: Its DC50 is 70.3 nM.

Question: What about the “BTK deg Amax” value (BTK-GFP) of the same compound?
Answer: Its value is 49.4%.

Question: How did the GI50 (TMD8 cells; Homo sapiens) turn out when `Cc1ccc(C(=O)N2CCC(OC3CCN(Cc4ccc(-c5cc6c(-c7cc(F)cc(NC(=O)c8ccc(C(C)(C)O)cc8F)c7C)ncnc6[nH]5)cc4)CC3)CC2)cc1N1CCC(=O)NC1=O` [Compound 50, N-(3-(6-(4-((4-((1-(3-(2,4-dioxotetrahydropyrimidin-1(2H)-yl)-4-methylbenzoyl)piperidin-4-yl)oxy)piperidin-1-yl)methyl)phenyl)-7H-pyrrolo[2,3-d]pyrimidin-4-yl)-5-fluoro-2-methylphenyl)-2-fluoro-4-(2-hydroxypropan-2-yl)benzamide] was run?
Answer: The GI50 was 0.66 nM.

Question: What about the GI50 (OCI-LY3 cells; Homo sapiens) of the same compound?
Answer: Its GI50 is 7770 nM.

Question: And the DC50 (BTK-GFP)?
Answer: Its DC50 is 1.2 nM.

Question: And the “BTK deg Amax” value (BTK-GFP)?
Answer: Its value is 4.1%.

Question: Which GI50 (TMD8 cells; Homo sapiens) does the source give for `COc1ccc(C(=O)N2CCN(CCN3CCC(COc4ccc(-c5cc6c(-c7cc(F)cc(NC(=O)c8ccc(C(C)(C)O)cc8F)c7C)ncnc6[nH]5)cc4)CC3)CC2)cc1N1CCC(=O)NC1=O` [Compound 51, N-(3-(6-(4-((1-(2-(4-(3-(2,4-dioxotetrahydropyrimidin-1(2H)-yl)-4-methoxybenzoyl)piperazin-1-yl)ethyl)piperidin-4-yl)methoxy)phenyl)-7H-pyrrolo[2,3-d]pyrimidin-4-yl)-5-fluoro-2-methylphenyl)-2-fluoro-4-(2-hydroxypropan-2-yl)benzamide] here?
Answer: The GI50 was 0.58 nM.

Question: What about the GI50 (OCI-LY3 cells; Homo sapiens) of the same compound?
Answer: Its GI50 is 4370 nM.

Question: What about the DC50 (BTK-GFP) of the same compound?
Answer: Its DC50 is 0.8 nM.

Question: And the “BTK deg Amax” value (BTK-GFP)?
Answer: The value was 3.9%.
